Data on eight molecules can be found in PMC3492287, “Lysosomotropic Properties of Weakly Basic Anticancer Agents Promote Cancer Cell Selectivity In Vitro” (PLoS ONE, 2012).

Series [1] in a line: pKa determination by 1H NMR pH titration. In kind it is physicochemical. As to the method:
The pKa values for analogs 1, 2, 3, 5 and 6 (see Figure 2 for chemical structures) were measured at 37°C using ^1H NMR. To determine the pKa using this method, the chemical shifts of protons alpha to the ionizable amine were plotted against pH, yielding sigmoidal curves (Figure S1) from which pKa was derived. […] Therefore, we report a previously measured pKa value for compound 4 that was procured using an alternative approach, and we report a calculated value for compound 7 (see Materials and Methods). […] Only the higher pKa value is reported in Figure 2 because the second is too low to theoretically contribute to ion trapping in lysosomes.
All NMR solvents and reagents were obtained from Cambridge Isotope Labs (Andover, MA), unless noted otherwise. Compounds were dissolved at a 2–3 mg/mL concentration in D2O. pD measurements in D2O were performed using a MiniLab model IQ125 pH electrode (Fisher Scientific, Pittsburg, PA). pD was adjusted using NaOD (40% in D2O) or DCl (20% in D2O). ^1H NMR spectra were recorded at 37°C using a Bruker 400 MHz NMR and analyzed using the Bruker Topspin software. […] (DSS) was used as the reference peak. pD was converted to pH using the following expression: pH = 0.936pD*+0.412 [45]. The change in chemical shift of protons alpha to the amine as a function of pH yielded sigmoidal plots that were fit to a 4-parameter logistic equation using SigmaPlot (Systat Software, San Jose, CA) from which pKa was determined. The calculated pKa for compound 7 was determined using the MarvinSketch version 5.3.8. pKa plugin (www.chemaxon.com).

Series [2] deals with MDA-MB-231 cells with low (scrambled shRNA) vs elevated (V1E1 shRNA) lysosomal pH. Kind of series: intracellular distribution-based (IDB) selectivity from antiproliferative WST-1 IC50 values. It is filed as cell-based, human. An excerpt: We subsequently evaluated the IC50 of the Hsp90 inhibitors in both cell types (Figure S4) and calculated selectivity as IC50 in MDA-MB-231 cells with low lysosomal pH divided by IC50 in MDA-MB-231 cells with elevated lysosomal pH.
MDA-MB-231 cells with elevated lysosomal pH were generated by lentiviral vector-mediated knockdown of the V-ATPase V1E1 subunit (ATP6V1E1). The lentiviral transfer vector pPGK-Neo-ATP6V1E1 encoding the target sequence 5′-[…]-3′ against the V-ATPase V1E1 subunit was obtained from Mission (Sigma, St. Louis, MO). […] After the cells adhered, 2.6 µg of vector DNA was combined with 26 µL of the lentiviral packaging mix and transfected into cells using Fugene-6 transfection reagent (Roche Diagnostics, Indianapolis, IN), according to the manufacturer's instructions. […] The virus-containing cell culture supernatants were harvested twice: once at 24 h and again at 48 h. Prior to use, the viral media was filtered through a 0.45-µm filter and added onto 70% confluent 75 cc flasks of MDA-MB-231 cells, in the presence of 8 µg/mL hexadimethrine bromide. The viruses were allowed to infect the cells for 16–18 h, after which the media containing viruses was replaced with fresh media for a further 24 h prior to analysis of knockdown of V1E1 expression. The knockdown efficiency was analyzed by Western blotting, performed as described previously. […] Anti-goat HRP-conjugated secondary antibody (Santa Cruz Biotechnology) was used at a 1∶5000 dilution, and anti-mouse HRP-conjugated secondary antibody was used at a 1∶1000 dilution.
Cell sensitivity to compounds was evaluated using the WST-1 (4-[3[(4-iodophenyl)-2-(4-nitrophenyl)-2H-5-tetrazolio]-1,3-benzene disulfonate) assay (BioAssay Systems, Hayward, CA), which was performed according to the manufacturer's instructions. Briefly, 4000 cells were seeded per well of a 96-well plate and allowed to adhere overnight. Cells were incubated in increasing concentrations (9 different concentrations ranging from 0.00001 µM to 1000 µM) of drug for a period of 72 h. At the end of the drug treatment period, 10 µL of WST-1 reagent was added per well, allowed to incubate at 37°C for 2 hours, and absorbance at 450 and 620 nm (reference) was measured using a Multiskan model MCC/340 microplate reader (ThermoElectron Corp, Hudson, NH). Cell viability as a percent of control (untreated) cells was plotted against drug concentration to generate cytotoxicity curves, which were fit to 3 or 4 parameter logistic Hill plots using SigmaPlot. IC50 values were determined from the curve fit.
(In general: Tetrazolium dyes change colour on reduction, which living cells bring about.)

On the set-up of series [3]: method as in PMID 17163760. To be noted: previously measured; cited from earlier work.
For series [4] the following is noted: cited from earlier work.
Setting [5] is: 1H NMR in D2O, 37°C, n = 1, for compound 5 the higher pKa, read-out: pKa.

The structures appear in SMILES notation. “Also recorded” adds a separate entry of the source. Read-outs that look alike come from different tables or passages of the source.

`COC1C=CC=C(C)C(=O)NC2=CC(=O)C(NCCN3CCNCC3)=C(CC(C)CC(OC)C(O)C(C)C=C(C)C1OC(N)=O)C2=O` (centres unmarked) [Compound 5]: the pKa (usually the pH at which an ionisable group is half protonated) in series [1] (setting [5]) stood at 9.9; in series [1] (1H NMR, 37°C, too low to contribute to ion trapping, read-out: pKa (second, lower value)) it was 4.2.

`COC1C=CC=C(C)C(=O)NC2=CC(=O)C(NCCN(C)C)=C(CC(C)CC(OC)C(O)C(C)C=C(C)C1OC(N)=O)C2=O` (centres unmarked) [Compound 3] had a pKa in series [1] of 7.8.

On to `O=c1[nH]cc(F)c(=O)[nH]1` [5-fluorouracil], for which the “IDB selectivity (IC50 low lysosomal pH / IC50 elevated lysosomal pH MDA-MB-231)” value in series [2] was ~1; in series [2] (72 h, WST-1, n = 3), “one and did not show appreciable IDB selectivity”.

Consider `COc1cccc2c1C(=O)c1c(O)c3c(c(O)c1C2=O)C[C@@](O)(C(C)=O)C[C@@H]3O[C@H]1C[C@H](N)[C@H](O)[C@H](C)O1` [daunorubicin], for which the “IDB selectivity (IC50 low lysosomal pH / IC50 elevated lysosomal pH MDA-MB-231)” value in series [2] is on record as “significant but different degrees of IDB selectivity; also recorded: significantly higher IDB selectivity than did mitoxantrone”.

For the molecule `CO[C@H]1/C=C\C=C(/C)C(=O)NC2=CC(=O)C(NCCN(C)C)=C(C[C@@H](C)C[C@H](OC)[C@H](O)[C@@H](C)/C=C(\C)[C@@H]1OC(N)=O)C2=O` [17-DMAG], in series [3], the alpha value is recorded as 0.01.

On to `COC1C=CC=C(C)C(=O)NC2=CC(=O)C(NCCC3CCNCC3)=C(CC(C)CC(OC)C(O)C(C)C=C(C)C1OC(N)=O)C2=O` (centres unmarked) [Compound 6], for which the pKa in series [1] (setting [5]) was found to be 10.5.

For `O=C1c2c(O)ccc(O)c2C(=O)c2c(NCCNCCO)ccc(NCCNCCO)c21` [mitoxantrone], the “pKa” value in series [4] (in Figure 6) is given as 6; in series [4] (weakly basic), 8.1; in series [4] (weakly basic, listed as Mitoxantrone) it was ~8. Moreover, the “IDB selectivity (IC50 low lysosomal pH / IC50 elevated lysosomal pH MDA-MB-231)” value in series [2] (72 h, WST-1, n = 3) was “significant but different degrees of IDB selectivity”; in series [2] (72 h, WST-1, n = 3, listed as Mitoxantrone), “significant IDB selectivity”.

For the molecule `COC1C=CC=C(C)C(=O)NC2=CC(=O)C(NCCc3cccnc3)=C(CC(C)CC(OC)C(O)C(C)C=C(C)C1OC(N)=O)C2=O` (centres unmarked) [Compound 1], the pKa in series [1] (setting [5]) was determined as 5.8.
